What was measured:
[1] = target: T1, pantothenate kinase (ecPanK) (Escherichia coli, UniProt P0A6I3, D127A/F252Y/L277W); test: fluorescence polarization; type: binding
T1 construct: gene coaA; ecPanK D127A,F252Y,L277W

[2] = target: T2, pantothenate kinase (ecPanK) (Escherichia coli, UniProt P0A6I3); test: fluorescence polarization, purified protein titrated against […] TMR-TAZ; type: binding
T2 construct: gene coaA; ecPanK WT, N-terminal Strep-tag, C-terminal Hisx10
T2 sequence (P0A6I3 1-316): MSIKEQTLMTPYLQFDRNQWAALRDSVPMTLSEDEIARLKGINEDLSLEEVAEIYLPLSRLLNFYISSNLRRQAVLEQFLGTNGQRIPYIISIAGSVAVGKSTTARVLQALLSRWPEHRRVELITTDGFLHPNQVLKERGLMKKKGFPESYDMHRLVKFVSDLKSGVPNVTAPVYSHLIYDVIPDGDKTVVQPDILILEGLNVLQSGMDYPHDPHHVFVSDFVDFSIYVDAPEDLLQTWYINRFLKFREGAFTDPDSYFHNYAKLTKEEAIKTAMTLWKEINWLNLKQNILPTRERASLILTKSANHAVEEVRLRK

[3] = target: T2, pantothenate kinase (ecPanK); test: biochemical; design: fluorescence polarization competition against 50 nM TMR-TAZ with 20 uM ecPanK, half-maximal c50
Description: The binding affinity (c50) of different ecPanKs for CoA and AcCoA were determined by a fluorescence polarization competition assay against TMR-TAZ. 50 nM TMR-TAZ and 20 μM ecPanKs, except ecPanK^D127A,F252Y,L277W (100 μM), were titrated against CoA or AcCoA concentrations ranging from 64 nM to 5 mM in PBS supplemented with 0.5 mg ml^−1 BSA and 50 mM HEPES. Assays were performed in non-binding black 96-well plates with a final volume of 50 μl with excitation at 520 nm (bandwidth 20 nm) and emission 600 nm (bandwidth 20 nm). Obtained FP values were averaged and fitted to equation (4) to estimate the c50 values using OriginPro 2021.4 FP=FP0+FPs−FP0/1+c50/[L] Where FP0 is the fluorescence polarization of the fluorophore with ecPanKs in the absence of CoA or AcCoA (bound fluorophore), FPs is the fluorescence polarization of the fluorophore in the presence of CoA or AcCoA (free fluorophore) c50 is the half-maximal effective concentration, and [L] is the concentration of CoA or AcCoA. […] Representative in-gel fluorescence scan after SDS-PAGE (n = 3 independent experiments) of Halo-SiR labeled sensor proteins, Lane 1: protein marker, lane 2: CoA-Snifit^V97T, lane 3: CoA-Snifit^G41, lane 4: CoA-Snifit^G41S, lane 5: CoA-Snifit^G41N. c. […] Fluorescence polarization responses (FP, mean ± s.d., n = 3 independent replicates) of 50 nM TMR-TAZ as a function of ecPanK^WT concentration in PBS. e. […]

[4] = target: T2, pantothenate kinase (ecPanK); test: fluorescence polarization competition against TMR-TAZ; type: binding

| SMILES | Kd [1] [µM] | Kd [2] [µM] | IC50 [3] [µM] | fluorescence polarization competition against TMR-TAZ [4] |
| --- | --- | --- | --- | --- |
| CC(NC(=O)c1ccccc1C(F)(F)F)c1nnc(SCc2ccc(F)cc2)n1Cc1ccc(COC(=O)NCCOCCOCCNC(=O)c2ccc(C(=O)O)c(-c3c4ccc(=[N+](C)C)cc-4oc4cc(N(C)C)ccc34)c2)nc1 (centres unmarked) [compound 1, TMR-TAZ] | 21.6 ± 3.7 | 1.2 ± 0.2 |  |  |
| CC(=O)SCCNC(=O)CCNC(=O)[C@H](O)C(C)(C)COP(=O)(O)OP(=O)(O)OC[C@H]1O[C@@H](n2cnc3c(N)ncnc32)[C@H](O)[C@@H]1OP(=O)(O)O [acetyl-CoA] |  |  | 1420 ± 315 |  |
| CC(C)(COP(=O)(O)OP(=O)(O)OC[C@H]1O[C@@H](n2cnc3c(N)ncnc32)[C@H](O)[C@@H]1OP(=O)(O)O)[C@@H](O)C(=O)NCCC(=O)NCCS [Coenzyme A] |  |  | 214 ± 19.2 | CoA competes with TMR-TAZ for binding to ecPanK (Extended Data Fig. 1e) |

Reference: paper PMC9974488, “Probing coenzyme A homeostasis with semisynthetic biosensors” (Nature Chemical Biology, 2022)
